In patent publication US5861263A, “Preparation of preserved entamoeba histolytica antigens without enzymatic inhibitors and their use in immunological methods” (Universidad Autonoma De Nuevo Leon, priority 1992, dated 1999):

System: proteases of Entamoeba histolytica crude extract
Assay: Inhibition of crude amebic extract proteolytic activity (hide powder azure)
Assay type: biochemical, Entamoeba histolytica HK-9
Settings: 4 mM iodoacetamide
Experimental: The second method was carried out according to Rinderknecht et al., Clinica Chimica Acta., 21: 197-203 (1968). The activity corresponding to 6 million trophozoites was tested. Crude amebic extracts, IC:M and IC:MC were used. The samples were resuspended in 1.5 ml 0.05M Tris-HCL pH 7.5 containing 0.5% Triton X-100, and incubated for one hour at 4° C. and centrifuged at 11,000×g for 15 minutes. One ml. of the supernatant was added to 1 ml Tris-HCl containing 5 mg hide powder azure and 100 μl .2M cysteine. The samples were incubated at 37° C. for 1 hour and at the end of which the reaction was stopped by putting the tubes in an ice water bath. They were cold-centrifuged for 5 minutes at 450×g. The absorbency of the supernatants were determined at a wavelength of 600 nm. The former treatment was also done with samples that were incubated in the presence of SDS 2% or 2-ME 5% or 4 mM iodoacetamide. The positive control was taken as the activity obtained with 0.23 mg papain, which was activated with 0.7 mM 2-ME in Tris-HCl 0.05M at pH 8.0 at 4° C. for 10 minutes and then at 37° C. for 15 minutes with frequent stirring. Reaction mixtures without extracts were used as the negative control.

Structure (SMILES): NC(=O)CI [iodoacetamide]
- inhibition of the activity of the crude extract: approximately 70%
